Data as given in article PMC3436176 (The Journal of Biological Chemistry, 2012).

Experiments:
[1] = test system: GPVI on platelets; assay: Flow cytometric GPVI quantitation; type: cell-based, human; settings: dimers versus resting platelets
[2] = test system: GPVI dimer on washed platelets; assay: Time and agonist concentration dependence of dimer increase; type: cell-based, human
[3] = biological target: T1, GPVI-Fc2 (GPVI dimer) (Homo sapiens, UniProt Q9HCN6); assay: ELISA: GPVI dimer binding to immobilized collagenous substrates; settings: for Kd (monomer)/Kd (dimer): binding to collagenous substrates
T1 sequence (Q9HCN6 21-214 limits assumed): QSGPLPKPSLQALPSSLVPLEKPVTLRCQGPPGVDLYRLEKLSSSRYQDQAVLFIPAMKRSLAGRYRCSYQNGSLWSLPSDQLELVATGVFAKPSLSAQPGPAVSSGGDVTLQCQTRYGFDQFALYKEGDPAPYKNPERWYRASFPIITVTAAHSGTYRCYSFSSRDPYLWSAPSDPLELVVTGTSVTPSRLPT

[4] = CRP 5 μg/ml or thrombin 0.2 unit/ml, washed platelets 2.5 × 10^8 cells/ml

Substance	% increase after activation [1] [%]	time after which dimer levels started to increase [2, 4] [s]	time at which dimer level reaches a maximum [2, 4] [min]	agonist concentration at which dimer level reaches a maximum ([2]; washed platelets 1 × 10^8 cells/ml, FITC-m-Fab-F 100 μg/ml) [unit/ml]	Kd (monomer)/Kd (dimer) [3]	Hill coefficient for dimer binding ([3]; mean ± S.E., n = 4-12 as printed)
Thrombin: bovine thrombin (Sigma), platelet agonist	55	30	4 to 5	> 0.5		
GPC–(GPP)5–GAOGARGGAGPOGPEGGKGAAGPOGPO(GPP)5–GPC–NH2 [III-30A]					887.0	
Collagen type I: Pepsin-treated bovine type I collagen from Koken					194.3	1.14 ± 0.07
